The record followed here is patent US9370764B2, “Compositions and particles containing cellulosic fibers and stabilized-and/or activated-urease inhibitors, as well as methods of making and using the same” (INTERNATIONAL PAPER COMPANY, priority 2007, dated 2016).

The nature of the series: On-shelf aging of PPDA treated pulp at room conditions. The class given is physicochemical. To be noted: pulp treated with 400 ppm PPDA. Here is the method:
Bleached softwood pulps that were treated with 400 ppm PPDA was stored on shelf as dry pulp in ambient conditions for 18 weeks and 20 weeks. The aged pulp samples were then fluffed and tested for ammonia generation by bacteria as in Example 1.
Aging test was also conducted on-shelf in the bag at room conditions. The result was shown in Table 12, and plotted in FIG. 5 in log scale.

The structures appear in SMILES notation.

On to `NP(N)(=O)Oc1ccccc1` [PPDA, phenylphosphorodiamidate], for which the “PPDA remaining on the pulp (HPLC)” value (stored on shelf as dry pulp in ambient conditions for 18 weeks) is given as “trace amount” and the “PPDA remaining on the pulp (HPLC)” value (stored on shelf as dry pulp in ambient conditions for 20 weeks) is listed as “no PPDA remaining”.
